Read-outs that look alike come from different tables or passages of the source.
B1: Der p 1: purified natural Der p 1 house dust mite major allergen from Indoor Biotechnologies Ltd (protein)
chain: TNACSINGNAPAEIDLRQMRTVTPIRMQGGCGSCWAFSGVAATESAYLAYRNQSLDLAEQELVDCASQHGCHGDTIPRGIEYIQHNGVVQESYYRYVAREQSCRRPNAQRFGISNYCQIYPPNVNKIREALAQTHSAIAVIIGIKDLDAFRHYDGRTIIQRDNGYQPNYHAVNIVGYSNAQGVDYWIVRNSWDTNWGDNGYGYFAANIDLMMIEEYPYVVIL
B2: Der p 2: purified natural Der p 2 house dust mite major allergen from Indoor Biotechnologies Ltd (protein)
chain: DQVDVKDCANHEIKKVLVPGCHGSEPCIIHRGKPFQLEALFEANQNSKTAKIEIKASIDGLEVDVPGIDPNACHYMKCPLVKGQQYDIKYTWNVPKIAPKSENVVVTVKVLGDNGVLACAIATHAKIRD

Tests used:
[1] = system: IgE of sera of house dust mite allergic patients binding to nDer p 2; experiment: Competition ELISA on Der p 2 coated plates; design: species or system human; settings: for IgE binding in competition ELISA (Der p 2): sera from patients allergic to house dust mites, COPs 10^−5 to 10^−10 M
Procedure: (§1) Purified Der p 1 or Der p 2 at 1.0 μg/ml were coated overnight on 96-well Nunc Maxisorp® immunoplates (Thermo Fisher Scientific Inc., Wohlen, Switzerland). After blocking with 1% BSA, either twenty-fold, thirty-fold or forty-fold up to 200-fold dilutions of patient serum were added depending on specific IgE content. […] Sera of allergic patients were obtained from US and Europe (PlasmaLab International, Everett, Wash., USA and Biomnis, Lyon, France) respectively) selected for positive CAP for D. pteronyssinus and clear signal over background and used to test for competition with the peptides. Serial dilutions of each set of COPs, namely for Der p 1 Set A, B, C or D and for Der p 2 mixes D, E or F at concentrations ranging from 10^−5 to 10^−10 M were pre-incubated with selected serums for 15 min. on ice.

[2] = Solubility Characteristics of COPs; type: physicochemical
Procedure: All COPs were synthesized by solid phase fmoc chemistry at research scale to allow determination of IgE binding. […] Peptides were resuspended either in water at 2 mg/ml or at 10 to 20 mg per ml in DMSO (see Table 1) and frozen in aliquots.

IgE = experiment: Direct ELISA of Der p 2 COPs; type: binding, human
[3] = system: RBL-703/21 cells transfected with human Fc epsilon RI receptor, sensitized with sera from patients with house dust mite allergy; experiment: RBL degranulation; type: cell-based; settings: RBL cells pre-loaded with 18 human serums; AllerDM up to 10^−5M
Procedure: Degranulation assay was performed as described in [37]. RBL-703/21 cells transfected with human Fc epsilon RI receptor were plated in 96-well tissue culture plates (10^5 cells/well) overnight. Passive sensitization of RBL-703/21 cells was carried out with sera from patients with house dust mite allergy at 1:20 overnight. Unbound antibodies were removed by washing the cell layer twice in Hanks' balanced salt solution (Gibco, Life technologies) the next day. Degranulation of RBL cells was induced for 1 h at 37° C. by adding nDer p1, nDer p 2 or individual COPs and mixes at indicated concentrations diluted in Tyrode's buffer (130 mM NaCl, 5 mM KCl, 1.4 mM CaCl2, 1 mM MgCl2, 5.6 mM glucose, 10 mM HEPES pH7.4, 0.1% BSA). β-hexosaminidase activity was analyzed by incubating 30 μl of cell supernatant with 50 μl of 1.3 mg/ml 4-Nitrophenyl N-acetyl-β-D-glucosaminide (Sigma) in citrate buffer (0.1M, pH 4.5) for 1 h at 37° C. The reaction was stopped by addition of 100 μl glycine buffer (0.2M glycine, 0.2M NaCl, pH 10.7) and optical densities (OD) were measured at 405 nm.

[4] = system: IgE of sera of house dust mite allergic patients binding to nDer p 1; experiment: Competition ELISA on Der p 1 coated plates; design: species or system human; settings: panel of 21 sera
Procedure: as §1

Molecule | IgE binding in competition ELISA (Der p 2) [1] | Conc. [2] | basophil degranulation of RBL cells, serum panel [3] | other results
DQVDVKDCANHEIKKVLVPGCHGSEPCIIHRGKPFQLEAVFEANQNTKTAKIEIKASIDGLEVDVPGIDPNA [AllerDM2.1] | did not bind IgE |  |  | Conc. ([2]; pH 5): 1000 µg/mL
SEPCIIHRGKPFQLEALFEANQNSKTAKIEIKASIDGLEVDVPGIDPNACHYMKCPLVKGQQYDIKYTWNVPKIA [AllerDM2.7] | residual IgE binding | 3500 µg/mL |  | 
SIDGLEVDVPGIDPNACHYMKCPLVKGQQYDIKYTWNVPKIAPKSENVVVTVKVMGDDGVLACAIATHAKIRD [AllerDM2.2] |  | 1700 µg/mL |  | IgE binding in direct ELISA (IgE): found to bind IgE; effect of denaturing salts on IgE binding (Der p 2 competition ELISA) ([1]; denaturing salts incl. guanidinium chloride or urea, 30 min pre-incubation with 1M guanidinium chloride): strongly diminished IgE binding
B1 |  |  | able to induce degranulation | concentration range of competition (Der p 1 control) [4]: 10^−7 to 10^−9 M
B2 |  |  | able to induce degranulation | concentration range of competition (Der p 2 control) ([1]; panel of 21 sera): 10^−7 to 10^−9 M

Reference: patent US20150050301A1, “Contiguous Overlapping Peptides for Treatment of House Dust Mites Allergy” (ANERGIS S.A., priority 2013, published 2015)
